These results are taken from patent publication US11963960B2 (Flash Therapeutics, LLC, priority 2020, dated 2024).

Series [1] is described as follows: Assessment of In Vivo Pharmacokinetics in Beagle dog. The settings on record: for bioavailability in vivo / plasma clearance in vivo: dog, comparison in words; for Dog BAV: male Beagle dog, iv or po at 1 mg/kg or 3 mg/kg. On the procedure: Assessment of In Vivo Pharmacokinetics
A total of 6 Male Non-naïve Beagle dog, weighing approximately 8.00-10.00 kg (Beijing Marshall Biotechnology Co. LTD), were dosed by intravenous injection (iv) or oral gavage (po) at 1 mg/kg or 3 mg/kg. The vehicles of IV and PO are 100% saline and 100% (0.5% MC in water), respectively. The IV dose was conducted via cephalic vein injection, PO via gavage administration. The animals were restrained manually, and approximately 0.5 mL blood/time point was collected from cephalic vein into pre-cooled K2EDTA tubes. Blood sample was put on wet ice and centrifuged at 4° C. (2000 g, 5 min) to obtain plasma within 15 minutes of sample collection. Plasma samples were analyzed by UPLC/MS-MS. PK parameters were estimated by non-compartmental model using WinNonlin6.4.

The target of series [2] is N-terminally GST-tagged HCK (75-526) (Homo sapiens (Human), UniProt P08631). Kind of series: HCK Kinase Assay (ProFluor Src-Family Kinase Assay). The conditions noted are these: for IC50: 50 μM ATP. The format is biochemical. In short, it runs like this: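 ProFluor Src-family format: after the kinase reaction, protease solution was added for 60 min at room temperature (22-25° C), then stabilizer.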
Chain of N-terminally GST-tagged HCK (75-526) (P08631 75-526): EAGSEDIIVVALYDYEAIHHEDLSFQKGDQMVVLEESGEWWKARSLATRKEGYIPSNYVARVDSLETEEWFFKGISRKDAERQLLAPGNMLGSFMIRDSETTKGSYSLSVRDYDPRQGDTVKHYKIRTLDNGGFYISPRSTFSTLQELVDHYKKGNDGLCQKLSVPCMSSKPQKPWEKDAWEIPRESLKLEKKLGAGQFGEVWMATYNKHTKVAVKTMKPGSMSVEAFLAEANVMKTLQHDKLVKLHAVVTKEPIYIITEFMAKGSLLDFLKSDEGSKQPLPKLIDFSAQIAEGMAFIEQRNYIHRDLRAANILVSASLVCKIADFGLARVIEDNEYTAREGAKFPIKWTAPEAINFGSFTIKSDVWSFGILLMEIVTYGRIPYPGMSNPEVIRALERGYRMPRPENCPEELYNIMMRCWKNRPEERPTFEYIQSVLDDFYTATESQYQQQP

Series [3] is described as follows: Assessment of In Vitro Metabolic Stability in dog liver microsomes. The format is in vitro ADME. The settings on record: for t1/2 in dog LM compared with the compound of example 1: comparison in words; for half-life at 1 μM: dog liver microsomes 0.5 mg/mL, 1 μM compound, NADPH, 37° C., read-out: Dog LM t1/2. On the procedure:
Assessment of In Vitro Metabolic Stability
Dog liver microsomes (0.5 mg/mL) were purchased from Corning. Stock solutions were prepared at 10 mM in DMSO for the test compound. Aliquots of the stock solutions were diluted to 0.5 mM with acetonitrile, and then further diluted upon the addition of liver microsomes/buffer to 1.5 μM. An aliquot of 30 μL of 1.5 μM solutions was mixed with 15 μL of 6 mM NADPH and the final concentration of NADPH was 2 mM, which had been pre-warmed to 37° C. Test compound and Ketanserin final concentrations were 1 μM. The plates were kept in a 37° C. water bath for the duration of the experiment. At each time point (0, 5, 15, 30, 45 minutes), 135 μL of acetonitrile was added into corresponding wells. After the final time point was quenched by acetonitrile, the assay plates were shaken (IKA, MTS 2/4) for 10 min (600 rpm/min) and then centrifuged at 5,594 g for 15 min (Thermo Multifuge×3R). Aliquots of the supernatant were taken, diluted 1:1 into distilled water, and analyzed by LC-MS/MS. The peak area response ratio to internal standard (PARR) of the compounds at 5, 15, 30, 45 minutes was compared to the PARR at time 0 to determine the percent of test compound remaining at each time point. Half-lives were calculated using Excel software, fitting to a single-phase exponential decay equation.
(In general: Microsomes from liver hold many membrane-bound enzymes, among them those of drug oxidation.)

Where [4] appears, read: HCK inhibitory activity, read-out: HCK Activity.

“Also recorded” adds a separate entry of the source. Read-outs that look alike come from different tables or passages of the source.

Take `C[C@H]1CN([C@H]2CC[C@H](n3nc(-c4ccc(Oc5ccccc5)cc4F)c4c(N)ncnc43)CC2)CCN1` [Example 127, 3-(2-fluoro-4-phenoxyphenyl)-1-((trans)-4-((S)-3-methylpiperazin-1-yl)cyclohexyl)-1H-pyrazolo[3,4-d]pyrimidin-4-amine]: in series [1], the bioavailability in vivo entry is reported as “higher bioavailability”, the “plasma clearance in vivo” value was “lower plasma clearance” and the “Dog BAV” value is listed as 57 % F. Besides, the IC50 in series [2] (read-out: HCK IC50) was 5.1 nM. The IC50 in series [2] (setting [4]) was under 50 nM. In series [2] (example 127 versus example 21 and versus example 17), the “HCK potency relative to a comparator compound” value is “nearly an order of magnitude higher potency; also recorded: nearly three times greater potency”. Moreover, in series [3], the “t1/2 in dog LM compared with the compound of example 1” value is listed as “higher t1/2” and the half-life at 1 μM turned out to be 1.97 h.
As to `CN1CCN([C@H]2CC[C@H](c3nc(-c4ccc(Oc5ccccc5)cc4F)c4c(N)ncnn43)CC2)CC1` [Example 163, 5-(2-fluoro-4-phenoxyphenyl)-7-((trans)-4-(4-methylpiperazin-1-yl)cyclohexyl)imidazo[5,1-f][1,2,4]triazin-4-amine], in series [1], the bioavailability in vivo result is “higher bioavailability”, the “plasma clearance in vivo” value is given as “lower plasma clearance” and the “Dog BAV” value was found to be 51 % F. In addition, in series [2] (read-out: HCK IC50), the IC50 was 1.1 nM. The IC50 in series [2] (setting [4]) is under 50 nM. Besides, in series [3], the “t1/2 in dog LM compared with the compound of example 1” value is given as “higher t1/2” and the half-life at 1 μM came to 1.8 h.
